Patent US20050203187A1, “Formulations useful for the treatment of varicella zoster virus infections and methods for the use thereof” (priority 1998, published 2005)
Converted amounts (≈) assume the structure as drawn. “Also recorded” adds a separate entry of the source. Where two headings read alike, the source gives them in different places.

Experiments:
varicella zoster virus [1] = experiment: Shingles episode in a person; conditions: oral 400 mg 2×/day
[2] = Cytotoxicity in human foreskin fibroblast cells; format: cell-based
Description: Human foreskin fibroblast (HFF) cells obtained from newborns were prepared and suspended in minimum essential medium (MEM) and supplemented with 10% fetal bovine serum (FBS). Freshly processed cells were incubated for 24 hours at 37° C. in well tissue culture plates in a CO2 incubator (E. R. Kern, J. Infect. Dis., 128:290 (1973)). Assays for cytotoxicity and varicella zoster virus replication were carried out in these culture wells following reported procedures (see, for example, R. J. Ryback and E. R. Kern et al, Antimicrobial Agents and Chemotherapy, 44:1506 (2000); Y. L. Qiu et al, J. Med. Chem., 41: 10 (1998); and Y. L. Qiu et al, J. Med. Chem., 41: 5257 (1998)). Drug concentrations were diluted six times from 100 μg/ml down to 0.03 μg/ml in MEM/FBS solution. A selective index of 10 is considered significant.

Varicella Zoster Virus [3] = experiment: Varicella zoster virus replication in cultures of human foreskin fibroblast cells; format: cell-based; conditions: for EC50: Human alphaherpesvirus 3, read-out: EC50 effective concentration required to inhibit viral replication by 50%; for EC50 / EC90: VZV in HFF cells; for EC90: Human alphaherpesvirus 3, read-out: EC90 effective concentration required to inhibit viral replication by 90%; for replication of varicella zoster virus in human cell cultures: statement in words
Description: (§1) Human foreskin fibroblast (HFF) cells obtained from newborns were prepared and suspended in minimum essential medium (MEM) and supplemented with 10% fetal bovine serum (FBS). […] Drug concentrations were diluted six times from 100 μg/ml down to 0.03 μg/ml in MEM/FBS solution. A selective index of 10 is considered significant.

herpes and other viruses = conditions: cited from earlier work
herpes simplex virus-1 = conditions: rabbit kidney cell cultures; cited from earlier work
Varicella zoster virus [4] = experiment: Varicella zoster virus replication in cultures of human foreskin fibroblast cells; format: cell-based; conditions: human; VZV in HFF cells; read-out: SI selective index of CC50/EC50
Description: as §1

[5] = Topical relief of muscle and joint pain in persons; format: in vivo, human; conditions: ibuprofen 5%, ketoprofen 3% (2-5%) in jojoba alcohol with 1% alpha-d-tocopherol, several drops
Description: Some persons using these medications experience gastrointestinal side effects.
(§2) The oil was tested on several persons for relief of minor muscle and joint pains.
(§3) The oil was tested topically on several persons for relief of minor muscle and joint pains.

herpes labialis (HSV-1) = conditions: 10% suspended in aqueous system with non-ionic surfactant and carrier; cited from earlier work
[6] = tested on: simian immunodeficiency virus (SIV); conditions: 12% cream, intravaginal application before exposure, six monkeys tested; cited from earlier work
[7] = ibuprofen 5%, ketoprofen 3%, lactic acid 5%, testosterone 1% in jojoba alcohol; malic acid 0.8%, citric acid 0.5% lotion; Viracol A Plus one drop
Description: Testosterone is a primary male hormone produced in the testes with effects on muscles, bones and sexual function. Testosterone replacement therapy for men with a deficiency, sometimes referred to as hypoganadism, is currently available in topical patches. […] This transdermal delivery technology can also be applied to corresponding estrogenic steroids such as estradiol for women.
as §2, §3
Malic Acid also known as hydroxysuccinic acid, occurs naturally in apples and is sometimes referred to as apple acid. It is used as a general purpose acidulent in food products.
For the next 8 days […] spread 1-2 drops twice each day on the 2.5 inch diameter outbreak of small blisters on […] arm, and 4-6 drops twice each day on the blisters at […] waist.

Nc1nc2c(ncn2COCCO)c(=O)[nH]1 [Acyclovir, reference compound]
side effects (varicella zoster virus [1]): diarrhea and headache
change in shingles (varicella zoster virus [1]; after several days): no change
CC50 ([2]; stationary HFF cells): > 100 µg/mL
EC50 (Varicella Zoster Virus [3]): 0.04 µg/mL (≈ 0.178 µM)
EC90 (Varicella Zoster Virus [3]): 0.09 µg/mL (≈ 0.4 µM)

O=C(O)CC(O)(CC(=O)O)C(=O)O [Citric Acid]
viral replication inhibition activity in cell cultures (herpes and other viruses): viral replication inhibition activity

O=C(O)/C=C/C(=O)O [Fumaric acid, trans 2-butenedioic acid]
herpes simplex virus-1 replication (herpes simplex virus-1): inhibitors
viral replication inhibition activity in cell cultures (herpes and other viruses): viral replication inhibition
CC50 [2]: > 100 µg/mL
EC50 (Varicella Zoster Virus [3]): 0.15 µg/mL (≈ 1.29 µM)
EC90 (Varicella Zoster Virus [3]): 0.6 µg/mL (≈ 5.17 µM)
replication of varicella zoster virus in human cell cultures (Varicella Zoster Virus [3]): inhibit replication
selectivity ratio (Varicella zoster virus [4]): > 666

O=C(O)CO [Glycolic Acid]
viral replication inhibition activity in cell cultures (herpes and other viruses): viral replication inhibition activity

CC(C)Cc1ccc(C(C)C(=O)O)cc1 (stereo not drawn) [Ibuprofen, alpha-methyl-4(2-methylpropyl)benzeneacetic acid]
pain relief on topical application [5]: successfully relieved pain; also recorded: relieving pain

CC(C(=O)O)c1cccc(C(=O)c2ccccc2)c1 (stereo not drawn) [Ketoprofen, 3-benzoyl-alpha-methylbenzeneacetic acid]
pain relief on topical application [5]: relieving pain
pain relief on topical application ([5]; listed as ketoprofen): successfully relieved pain

CC(O)C(=O)O (stereo not drawn) [Lactic Acid]
viral replication inhibition activity in cell cultures (herpes and other viruses): viral replication inhibition activity

O=C(O)CC(O)C(=O)O (stereo not drawn) [Malic Acid, hydroxysuccinic acid]
viral replication inhibition activity in cell cultures (herpes and other viruses): viral replication inhibition activity

O=C(O)CC(=O)O [Malonic acid, propanedioic acid]
herpes simplex virus-1 replication (herpes simplex virus-1): inhibitors
CC50 [2]: > 100 µg/mL
EC50 (Varicella Zoster Virus [3]): < 0.03 µg/mL
EC90 (Varicella Zoster Virus [3]): < 0.03 µg/mL
replication of varicella zoster virus in human cell cultures (Varicella Zoster Virus [3]): inhibit replication
selectivity ratio (Varicella zoster virus [4]): > 3330

CC(=O)C(=O)O [Pyruvic acid, Pyruvic Acid]
viral replication inhibition activity in cell cultures (herpes and other viruses): viral replication inhibition activity

O=C(O)CCC(=O)O [Succinic acid, Succinic Acid]
viral replication inhibition activity in cell cultures (herpes and other viruses): viral replication inhibition activity

CCCCCCCCCCCCCCCCCCCCCCO [n-docosanol, n-Docosanol]
mean healing time of lesions (herpes labialis (HSV-1)): shortened
monkeys in which transmission was prevented [6]: five

C[C@]12CC[C@H]3[C@@H](CCC4=CC(=O)CC[C@@]43C)[C@@H]1CC[C@@H]2O [testosterone, Testosterone]
absorption into human skin, residue, irritation [7]: leaves no residue
